In brackets after ≈: the same amount, converted by molar mass.
Experiments:
[1] = system: Mycobacterium tuberculosis (strain H37Rv); assay: MABA minimum inhibitory concentration assay (aerobic/replicating); assay type: cell-based; details: Mycobacterium tuberculosis; M.tb H37Rv, aerobic/replicating; 90% inhibition of growth
[2] = system: VERO green monkey kidney cells; assay: VERO mammalian cell toxicity assay; assay type: cell-based; details: Chlorocebus sabaeus; inhibition of growth of VERO green monkey kidney epithelial cells
[3] = Microsomal stability, human liver microsomes; assay type: in vitro ADME; details: pH 7.4; for microsomal CLint at 1 μM: human liver microsomes, read-out: HLM Clint(mic)
Procedure: (§1) Assays were performed by WuXi AppTec (Shanghai) Co., Ltd. The test compounds (Table 4) (at 1 μM) were incubated at 37 °C with liver microsomes from human or CD-1 mice in the presence of a NADPH regenerating system and phosphate buffer (100 mM, pH 7.4) at 0.5 mg/mL microsomal protein (the positive controls were testosterone, propafenone, and diclofenac). Samples were removed at time intervals of 0, 5, 10, 20, 30, and 60 min and immediately mixed with cold CH3CN (containing 0.1 μg/mL of tolbutamide as an internal standard) and then centrifuged prior to analysis by LCMS/MS.

[4] = Microsomal stability, mouse liver microsomes; assay type: in vitro ADME; details: for CLint scaled at 1 μM / half-life at 1 μM: CD-1, mouse, microsomes, pH 7.4; for microsomal CLint at 1 μM: CD-1, pH 7.4, mouse liver microsomes, read-out: MLM Clint(mic)
Procedure: as §1

hERG = hERG (Homo sapiens, UniProt Q12809); assay: hERG channel blockade, manual patch clamp; assay type: cell-based; details: cloned hERG potassium channels, room temperature; for inhibition at 0.3 µM: read-out: hERG % inhib. at 0.3 µM; for inhibition at 1 µM: read-out: hERG % inhib. at 1.0 µM
hERG, sequence (Q12809 whole entry): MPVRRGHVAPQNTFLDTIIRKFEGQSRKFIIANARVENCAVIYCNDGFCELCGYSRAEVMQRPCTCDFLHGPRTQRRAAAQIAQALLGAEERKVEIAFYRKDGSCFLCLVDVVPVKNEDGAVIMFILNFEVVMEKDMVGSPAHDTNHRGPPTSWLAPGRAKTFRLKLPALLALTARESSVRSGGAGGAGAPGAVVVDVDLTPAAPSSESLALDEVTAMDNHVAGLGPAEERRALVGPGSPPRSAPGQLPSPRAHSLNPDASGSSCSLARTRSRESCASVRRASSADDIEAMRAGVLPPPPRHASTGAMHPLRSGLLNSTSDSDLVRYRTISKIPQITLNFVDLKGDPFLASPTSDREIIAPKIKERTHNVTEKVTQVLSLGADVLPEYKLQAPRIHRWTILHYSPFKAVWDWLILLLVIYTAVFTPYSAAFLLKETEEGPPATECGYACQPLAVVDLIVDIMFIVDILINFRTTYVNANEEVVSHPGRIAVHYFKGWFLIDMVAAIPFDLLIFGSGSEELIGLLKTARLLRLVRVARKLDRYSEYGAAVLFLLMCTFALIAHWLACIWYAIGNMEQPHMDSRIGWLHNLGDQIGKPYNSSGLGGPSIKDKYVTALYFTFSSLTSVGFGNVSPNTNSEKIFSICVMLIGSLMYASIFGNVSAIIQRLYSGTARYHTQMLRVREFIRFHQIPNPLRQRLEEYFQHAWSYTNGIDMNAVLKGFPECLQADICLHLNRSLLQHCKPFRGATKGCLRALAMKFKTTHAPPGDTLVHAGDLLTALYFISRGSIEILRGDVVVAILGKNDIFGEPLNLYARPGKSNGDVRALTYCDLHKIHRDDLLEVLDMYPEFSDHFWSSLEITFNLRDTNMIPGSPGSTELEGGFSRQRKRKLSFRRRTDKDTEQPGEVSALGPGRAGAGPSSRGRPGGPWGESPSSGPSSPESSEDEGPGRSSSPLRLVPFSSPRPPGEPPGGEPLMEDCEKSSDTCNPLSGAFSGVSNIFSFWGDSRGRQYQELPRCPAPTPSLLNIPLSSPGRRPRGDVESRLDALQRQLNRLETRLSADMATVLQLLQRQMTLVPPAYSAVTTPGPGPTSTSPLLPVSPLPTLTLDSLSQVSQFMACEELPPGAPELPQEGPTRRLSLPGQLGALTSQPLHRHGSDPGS
Procedure: Selected compounds were evaluated for hERG channel blockade (Table 4) by WuXi AppTec (Shanghai) Co., Ltd. This was carried out using cloned hERG potassium channels according to their standard manual patch clamp method. Two concentrations (0.3 and 1.0 µM) were tested (at room temperature), and at least three replicates were obtained for each. Amitryptyline was used as a standard.

[5] = system: Mycobacterium tuberculosis (strain H37Rv); assay: LORA minimum inhibitory concentration assay (low-oxygen/non-replicating); details: M.tb H37Rv, 90% inhibition of growth
[6] = human/mouse liver microsomes not distinguished, read-out: T½ values (microsomal stability)

SMILES | MIC90 [1] [µg/mL] | IC50 [2] [µg/mL] | CLint scaled at 1 μM ([3]; human, microsomes) [mL/min/kg] | half-life at 1 μM ([3]; human, microsomes) [h] | microsomal CLint at 1 μM [3] [µL/min/mg] | half-life at 1 μM [3, 6] [h] | CLint scaled at 1 μM [4] [mL/min/kg] | half-life at 1 μM [4] [h] | microsomal CLint at 1 μM [4] [µL/min/mg] | inhibition at 0.3 µM (hERG) [%] | inhibition at 1 µM (hERG) [%] | MIC90 LORA [5] [µg/mL]
Fc1ccc(-c2cnn3c(NCc4ccccn4)cc(C4CC4)nc23)cc1 [Compound 25, 5-Cyclopropyl-3-(4-fluorophenyl)-N-(pyridin-2-ylmethyl)pyrazolo[1,5-a]pyrimidin-7-amine] | 1.54 (≈ 4.28 µM) | 23.4 (≈ 65.1 µM) | 68 | 0.3 | 76 | < 1.42 | 424 | 0.217 | 107 | 8 | 19 | 0.20 (≈ 0.556 µM)
Fc1ccc(-c2cnn3c(NCc4ccccn4)cc(-c4ccccc4F)nc23)cc1 [Compound 28, 5-(2-Fluorophenyl)-3-(4-fluorophenyl)-N-(pyridin-2-ylmethyl)pyrazolo[1,5-a]pyrimidin-7-amine] | 1.79 (≈ 4.33 µM) | > 32 | 18 | 1.15 | 20 | < 1.42 | 113 | 0.817 | 29 | 17 | 36 | 0.22 (≈ 0.532 µM)
Cc1cccc(-c2cc(NCc3ccccn3)n3ncc(-c4ccc(F)cc4)c3n2)c1 [Compound 30, 3-(4-Fluorophenyl)-N-(pyridin-2-ylmethyl)-5-(m-tolyl)pyrazolo[1,5-a]pyrimidin-7-amine] | 1.6 (≈ 3.91 µM) | > 32 | < 8.6 | > 2.42 | < 9.6 |  | < 38 | > 2.42 | < 9.6 | 3 | 11 | 0.9 (≈ 2.2 µM)
COc1ccc(-c2cc(NCc3ccccn3)n3ncc(-c4ccc(F)cc4)c3n2)cc1 [Compound 34, 3-(4-Fluorophenyl)-5-(4-methoxyphenyl)-N-(pyridin-2-ylmethyl)pyrazolo[1,5-a]pyrimidin-7-amine] | 1.5 (≈ 3.53 µM) | > 32 | 16 | 1.28 | 18 | < 1.42 | 88 | 1.05 | 22 | 0 | 1 | 0.25 (≈ 0.588 µM)
CC(C)c1ccc(-c2cc(NCc3ccccn3)n3ncc(-c4ccc(F)cc4)c3n2)cc1 [Compound 35, 3-(4-Fluorophenyl)-5-(4-isopropylphenyl)-N-(pyridin-2-ylmethyl)pyrazolo[1,5-a]pyrimidin-7-amine] | 1.8 (≈ 4.11 µM) | > 32 | < 8.6 | > 2.42 | < 9.6 |  | < 38 | > 2.42 | < 9.6 | 1 | 1 | 1.0 (≈ 2.29 µM)
CC(C)(C)c1ccc(-c2cc(NCc3ccccn3)n3ncc(-c4ccc(F)cc4)c3n2)cc1 [Compound 36, 5-(4-(Tert-butyl)phenyl)-3-(4-fluorophenyl)-N-(pyridin-2-ylmethyl)pyrazolo[1,5-a]pyrimidin-7-amine] | 1.7 (≈ 3.76 µM) | > 32 | < 8.6 | > 2.42 | < 9.6 |  | < 38 | > 2.42 | < 9.6 | 0 | 0 | 1.9 (≈ 4.21 µM)
Fc1ccc(-c2cnn3c(NCc4ccccn4)cc(-c4ccc(OC(F)(F)F)cc4)nc23)cc1 [Compound 38, 3-(4-Fluorophenyl)-N-(pyridin-2-ylmethyl)-5-(4-(trifluoromethoxy)phenyl)pyrazolo[1,5-a]pyrimidin-7-amine] | 1.9 (≈ 3.96 µM) | > 32 | 15 | 1.43 | 16 | < 1.42 | < 38 | > 2.42 | < 9.6 | 2 | 2 | 1.1 (≈ 2.29 µM)
Fc1ccc(-c2cnn3c(NCc4ccccn4)cc(-c4cccnc4)nc23)cc1 [Compound 39, 3-(4-Fluorophenyl)-N-(pyridin-2-ylmethyl)-5-(pyridin-3-yl)pyrazolo[1,5-a]pyrimidin-7-amine] | 2.3 (≈ 5.8 µM) | > 32 | 57 | 0.367 | 63 | < 1.42 | 445 | 0.2 | 112 | 16 | 46 | 0.30 (≈ 0.757 µM)
Fc1ccc(-c2cnn3c(NCc4ccccn4)cc(-c4cccs4)nc23)cc1 [Compound 41, 3-(4-Fluorophenyl)-N-(pyridin-2-ylmethyl)-5-(thiophen-2-yl)pyrazolo[1,5-a]pyrimidin-7-amine] | 0.99 (≈ 2.47 µM) | > 32 | 75 | 0.283 | 83 | < 1.42 | 163 | 0.567 | 41 | 0 | 0 | 0.36 (≈ 0.897 µM)
Fc1ccc(-c2cnn3c(NCc4ccccn4)cc(-c4ccsc4)nc23)cc1 [Compound 42, 3-(4-Fluorophenyl)-N-(pyridin-2-ylmethyl)-5-(thiophen-3-yl)pyrazolo[1,5-a]pyrimidin-7-amine] | 1.4 (≈ 3.49 µM) | > 32 | 43 | 0.483 | 47 | < 1.42 | 298 | 0.3 | 75 | 9 | 24 | 0.22 (≈ 0.548 µM)
Fc1ccc(-c2cnn3c(NCc4ccccn4)cc(-c4ccoc4)nc23)cc1 [Compound 44, 3-(4-Fluorophenyl)-5-(furan-3-yl)-N-(pyridin-2-ylmethyl)pyrazolo[1,5-a]pyrimidin-7-amine] | 0.96 (≈ 2.49 µM) | > 32 | 66 | 0.317 | 74 | < 1.42 | 570 | 0.167 | 144 | 4 | 14 | 0.16 (≈ 0.415 µM)

Source: PMC9506485, “Synthesis and Structure–Activity Relationships for the Anti-Mycobacterial Activity of 3-Phenyl-N-(Pyridin-2-ylmethyl)Pyrazolo[1,5-a]Pyrimidin-7-Amines” (Pharmaceuticals, 2022)
